# In patent US6380164B1, “Method for treating cytokine mediated hepatic injury” (University of Kentucky Research Foundation, priority 1999, dated 2002):
# Tested on: Male BALB/c HSD mice
# Test: Survival of mice rendered hepatotoxic by LPS/GAL treatment (hepatic failure / septic shock model)
# Format: in vivo
# Settings: for survival time compared to mice receiving LPS/GAL only: mice made septic by LPS/GAL treatment, 4 mg/kg intraperitoneal x5, result in words; for SURVIVAL 15 Hours (number of surviving mice) / SURVIVAL 15 Hours (percent of mice) / SURVIVAL 20 Hours (number of surviving mice) / SURVIVAL 20 Hours (percent of mice) / SURVIVAL 40 Hours (number of surviving mice) / SURVIVAL 40 Hours (percent of mice) / SURVIVAL 65 Hours (number of surviving mice) / SURVIVAL 65 Hours (percent of mice): n=15 mice, 4 mg/kg intraperitoneal at 0 h, 2 h, 4 h, 6 h and 7.5 h, LPS/GAL at 6.5 h; for SURVIVAL 15 Hours (number of surviving mice) / SURVIVAL 15 Hours (percent of mice): 15 h after the last injection; for SURVIVAL 20 Hours (number of surviving mice) / SURVIVAL 20 Hours (percent of mice): 20 h after the last injection; for SURVIVAL 40 Hours (number of surviving mice) / SURVIVAL 40 Hours (percent of mice): 40 h after the last injection; for SURVIVAL 65 Hours (number of surviving mice) / SURVIVAL 65 Hours (percent of mice): 65 h after the last injection
# Method: Hepatic failure was induced in mice by intraperitoneal injections of a mixture of lipopolysaccharide (LPS) ([…]) and D-galactosamine (GAL) (700 mg/kg) to form LPS/GAL. LPS is a bacterial endotoxin that is a major stimulus for production of many cytokines, particularly tumor necrosis factor (TNF), thought to be involved in liver injury. GAL is an amino sugar that sensitizes hepatocytes by depleting the base uridine and thus preventing hepatic transcription, and sensitizes animals to normally innocuous amounts of endotoxin or TNF. The LPS/GAL treatment induces fulminate hepatic and multiorgan failure, and serves as a model for septic shock. The major effects of LPS/GAL are elicited by the inflammatory cytokine TNF-α. Hepatocytes sensitized to TNF-α then undergo apoptosis or programmed cell death in response to inflammatory processes.
# Mice were treated with deltorphin and were subsequently rendered hepatotoxic by LPS/GAL treatment. An emulsion of deltorphin I SEQ ID NO:1 (Tyr-D-Ala-Phe-Asp-Val-Val-Gly-NH2) was prepared at a concentration of 80 μg/200 μl in sterile phosphate buffered saline (PBS). An emulsion of DADLE (Tyr-D-Ala-Gly-Phe-D-Leu-enkephalin) was also prepared at a concentration of 80 μg/200 μl in sterile PBS. Male BALB/c HSD mice were treated by intraperitoneal injections according to the following protocol. Control mice (n=7) received only LPS/GAL (280 μl) at 6.5 h. Deltorphin I SEQ ID NO:1 treated mice (n=15) received injections of 4 mg/kg deltorphin I SEQ ID NO:1 at 0 h, 2 h, 4 h, 6 h and 7.5 h and received an LPS/GAL injection at 6.5 h. DADLE treated mice (n 15) received 4 mg/kg DADLE at 0 h, 2 h, 4 h, 6 h and 7.5 h and received an LPS/GAL injection at 6.5 h.
# Both control and treated mice were monitored at 15 h, 20 h, 40 h and 65 h after the last injection.
Molecule,survival time compared to mice receiving LPS/GAL only,SURVIVAL 15 Hours (number of surviving mice),SURVIVAL 15 Hours (percent of mice) [%],SURVIVAL 20 Hours (number of surviving mice),SURVIVAL 20 Hours (percent of mice) [%],SURVIVAL 40 Hours (number of surviving mice),SURVIVAL 40 Hours (percent of mice) [%],SURVIVAL 65 Hours (number of surviving mice),SURVIVAL 65 Hours (percent of mice) [%]
"CC(C)C[C@@H](NC(=O)[C@H](Cc1ccccc1)NC(=O)CNC(=O)[C@@H](C)NC(=O)[C@@H](N)Cc1ccc(O)cc1)C(=O)O [DADLE, Tyr-D-Ala-Gly-Phe-D-Leu-enkephalin]",not as striking at any time point,3,20,3,20,3,20,3,20
Tyr-D-Ala-Phe-Asp-Val-Val-Gly-NH2 [deltorphin I SEQ ID NO:1],markedly increased survival time,12,80,11,73,11,73,11,73
